We go through two compounds from ChEMBL document CHEMBL1629637, “In vitro activities of tigecycline, minocycline, and colistin-tigecycline combination against multi- and pandrug-resistant clinical isolates of Acinetobacter baumannii group” (Antimicrob Agents Chemother, 2009).

Converted amounts (≈) assume the structure as drawn.

The test system of data set [1] is Acinetobacter baumannii. The data set can be described thus: Antibacterial activity against colistin-susceptible Acinetobacter baumannii clinical isolates by broth microdilution method. It is filed as functional. A general note: Dilution methods test growth across graded concentrations, often in twofold steps.
The subject of data set [2] is Acinetobacter baumannii. The data set can be described thus: Antibacterial activity against colistin-resistant Acinetobacter baumannii clinical isolates by broth microdilution method. It is filed as functional.
Data set [3] in a line: Cmax in human serum at […], iv bolus dose followed by dose regimen of […] every 12 hrs. It is filed as ADME, organism-based. Details: route intravenous.
For data set [4], the system named is Acinetobacter baumannii. The data set can be described thus: Antibacterial activity against pandrug-resistant Acinetobacter baumannii clinical isolates by broth microdilution method. It is filed as functional.
Data set [5] relates to Acinetobacter baumannii. The data set can be described thus: Antibacterial activity against extensively drug-resistant Acinetobacter baumannii clinical isolates by broth microdilution method. It is filed as functional.
The subject of data set [6] is Acinetobacter baumannii. The data set can be described thus: Antibacterial activity against imipenem-susceptible Acinetobacter baumannii clinical isolates by broth microdilution method. The data set is classed as functional.
For data set [7], the system named is Acinetobacter baumannii. The data set can be described thus: Antibacterial activity against colistin-susceptible Acinetobacter baumannii clinical isolates assessed as percent susceptible isolates by broth microdilution method. The data set is classed as functional.
Data set [8] concerns Acinetobacter baumannii. The data set can be described thus: Antibacterial activity against colistin-resistant Acinetobacter baumannii clinical isolates assessed as percent susceptible isolates by broth microdilution method. The data set is classed as functional.
In data set [9] the test system is Acinetobacter baumannii. The data set can be described thus: Antibacterial activity against all antibiotic-resistant Acinetobacter baumannii clinical isolates assessed as percent susceptible isolates by broth microdilution method. It is filed as functional.
Data set [10] concerns Acinetobacter baumannii. The data set can be described thus: Antibacterial activity against extensively drug-resistant Acinetobacter baumannii clinical isolates assessed as percent susceptible isolates by broth microdilution method. It is filed as functional.
The test system of data set [11] is Acinetobacter baumannii. The data set can be described thus: Antibacterial activity against imipenem-susceptible Acinetobacter baumannii clinical isolates assessed as percent susceptible isolates by broth microdilution method. It is filed as functional.
Setting [12] is: Acinetobacter baumannii, read-out: MIC90.

As usually defined, the MIC50 is an inhibitory concentration at the 50% level, which refers to growth in some studies and to a panel of isolates in others. Broadly, the MIC90 is an inhibitory concentration at the 90% level, which refers to growth in some studies and to a panel of isolates in others. Broadly, the Cmax is the maximum level reached in the sampled fluid or tissue.

`CN(C)c1cc(NC(=O)CNC(C)(C)C)c(O)c2c1C[C@H]1C[C@H]3[C@H](N(C)C)C(O)=C(C(N)=O)C(=O)[C@@]3(O)C(O)=C1C2=O` [TIGECYCLINE]: the MIC50 in data set [1], in [4], in [5] and in [6] was 1 mg/L (≈ 1.71 µM) each time. Further, the MIC90 in data set [2] (setting [12]), in data set [4], in [5] and in data set [6] was 2 mg/L (≈ 3.41 µM) throughout. Besides, the Cmax in data set [3] turned out to be 0.63 µg/mL.

Turning to `CN(C)c1ccc(O)c2c1C[C@H]1C[C@H]3[C@H](N(C)C)C(O)=C(C(N)=O)C(=O)[C@@]3(O)C(O)=C1C2=O` [MINOCYCLINE], the MIC50 in [1] stood at 8 mg/L (≈ 17.5 µM); in [9], 8 mg/L (≈ 17.5 µM); in data set [10], 8 mg/L (≈ 17.5 µM); in data set [11], 4 mg/L (≈ 8.74 µM). The MIC90 in data set [2] came to 8 mg/L (≈ 17.5 µM); in [2] (setting [12]), 16 mg/L (≈ 35 µM); in data set [9], 16 mg/L (≈ 35 µM); in data set [10] it was 16 mg/L (≈ 35 µM); in [11], 8 mg/L (≈ 17.5 µM). Besides, the Activity is 18% in [7] and 49.4% in [8].
